Here are results for two molecules from patent EP3906926A1, “PROLINE HYDROXYLASE INHIBITORS FOR USE IN THE SKELETAL MUSCLE REGENERATION” (Policlinico San Donato S.p.A.- Istituto di Ricovero e Cura …, priority 2020, dated 2021).

Experiment [1] relates to WNT7a silenced murine myoblasts (WNT7a-KO). The experiment is described as follows: Differentiation of WNT7a-KO versus wild type myoblasts after chemical hypoxia (fusion and differentiation indexes). The format is cell-based. The conditions noted are these: WNT7a-KO vs wild type cells, 24 hours inhibitor pre-treatment then 7 days differentiation. On the procedure: (§1) After differentiation for 7 days in DM, cells were washed with phosphate saline buffer (PBS) and fixed for 15 minutes in 4% (w/v) paraformaldehyde at room temperature. For permeabilization and blocking, cells were incubated for 1 hour in the presence of PBS 0.1% (v/v) Triton X-100 (TX-100, Merck) and 5% (w/v) FBS (Merck) at room temperature. […] After incubation, cells were washed three times in PBS and incubated for 1 hour at room temperature with an anti-mouse FITC-conjugated secondary antibody (Jackson ImmunoResearch), diluted 1:200. […] Myogenesis was assessed by measuring the myotube area and the number of myonuclei per myotube using a fluorescent microscope (Olympus TH4-200) equipped with an acquisition camera. To quantify both differentiation and fusion indexes, ten fields were chosen randomly and, for each field, a minimum of one hundred myosin-positive myotubes with more than two myonuclei were measured using the ImageJ v1.49o software. The area and the number of nuclei per myotube was the mean of ten measurements averaged from three different experiments.
Therefore, WNT7a silencing was conducted by Crispr/Cas9 genome editing in C2C12 murine myoblasts and the effects on myogenesis were evaluated.
The knockout of WNT7a gene was obtained performing CRISPR/Cas9 genome editing. In particular, crRNAs and tracrRNA were obtained from TrueGuide™ Synthetic gRNA kit (ThermoFisher Scientific) and they were reconstituted and annealed following the manufacturer's instructions. […] Briefly, they were re-suspended using 1X Tris-EDTA buffer pH 8.0 to prepare a 100 µM stock solution. Then, gRNAs were generated preparing a mix composed of 10 µL crRNA, 10 µL tracrRNA, 10 µL annealing buffer, and 20 µL nuclease-free water. The mixture was incubated at 95 °C for 5 minutes followed by 10 mins on 78 °C, and then 25 °C for 5 minutes.
The transfection was performed seeding 5 x 10^5 murine myoblasts C2C12 in a 24-well plate.
The diluted Lipofectamine ™ CRISPRMAX ™ reagent in Opti-MEM I Medium was incubated 1 minute at room temperature and, then, it was added to gRNA/Opti-MEM I solution for 15 minutes. Then, the mixture was added to murine myoblasts and it was incubated at 37°C for 2 days. After the incubation, single-cell clones were isolated using a limiting dilution cloning in 96-well plates. The efficiency of WNT7a knockout (WNT7a-KO) was verified by sequencing.

The next experiment deals with MyoD. As to the kind of experiment: Western blot of MyoD nuclear localization. The experiment is classed as cell-based, murine. The conditions noted are these: IOX2 or FG-4592 for 24 hours. The procedure:
(§2) For nuclei separation, 5 x 10^6 cells were collected after enzymatic digestion with trypsin (Merck), centrifuged at the maximum speed, resuspended in 400 µl of Buffer A (10 mM KCl, 0.1 mM EDTA, 1 mM DTT, 10 mM Hepes, pH 7.9), containing protease and phosphatase inhibitors cocktail (Merck), and incubated on ice for 20 minutes. Then, 10% NP40 was added to the cell suspension, mixed for 40 seconds, and centrifuged 40 seconds at the maximum speed. After centrifugation, the pellet was resuspended in 80 µl of Buffer C (0.4M NaCl, 1 mM EDTA, 1 mM DTT, 20 mM Hepes, pH 7.9), containing a protease and phosphatase inhibitors cocktail, and then mixed for 30 minutes at 4°C at the maximum speed. Finally, the nuclear suspension was centrifuged for 5 minutes at 4°C at the maximum speed, collected and transferred in a new tube. The total protein content was determined with the BCA Protein Assay Kit (Pierce), according to the manufacturer's instructions.
Proteins were denaturated by boiling for 10 minutes in sample buffer (0.6 g/100 mL Tris, 2 g/100 mL SDS, 10% glycerol, 1% 2-mercaptoethanol, pH 6.8) and loaded into 10% SDS-PAGE gel, then transferred onto a nitrocellulose membrane (Trans-blot, Bio-Rad Laboratories) by electroblotting. Nitrocellulose membranes were incubated with a blocking solution containing 5% (w/v) non-fat dry milk or 5% (w/v) BSA (Merck) in Tris-buffer saline with 0.1% Tween® 20 (TBS-T) for 1 hour. […] Membranes were washed three times for 10 minutes with TBS-T, and then incubated with the appropriate anti-mouse, anti-rabbit, or anti-goat HRP-conjugated secondary antibodies (Dako, Agilent Technologies), 1:2000 dilution, for 1 hour at room temperature. After three washes for 10 minutes with TBS-T, the immunoreactive bands were visualized using the enhanced chemiluminescence detection kit reagents (ECL Advance, GeHealthcare), according to the manufacturer's instructions.
as §2, with “For total proteins extraction, 7.5 x 10^4 cells were seeded and harvested at 7th days of skeletal muscle differentiation, as previously described. Cells were collected after enzymatic digestion with trypsin (Merck), lysed by sonication and centrifuged at 800 xg for 10 minutes. Supernatant was used to determine total protein content with the BCA Protein Assay Kit (Pierce), according to the manufacturer's instructions. For” for “For”, “(0.4 M” for “(0.4M”
For orientation: Immunoblotting shows a protein as a band on a membrane.

In the next experiment the test system is murine myoblasts C2C12. As to the kind of experiment: Skeletal muscle differentiation, MHC immunofluorescence (fusion and differentiation indexes). The experiment is classed as cell-based. The conditions noted are these: IOX2 or FG-4592 24 hours in GM, then 7 days in DM without inhibitor; vs untreated controls. The procedure: (§3) The DM was changed every day for 7 days. Cells were analyzed at 24 hours post-treatment (PT), at 3rd and 7th days of skeletal muscle differentiation.
as §1, §3

For the molecule `Cc1nc(C(=O)NCC(=O)O)c(O)c2ccc(Oc3ccccc3)cc12` [FG-4592, Roxadustat], in experiment [1], the “decrease in fusion index” value was found to be 63% and the “reduction in differentiation index” value was determined as 15%. Besides, the “increase of the nuclear localization of MyoD” value in the experiment with MyoD amounted to 1.5 fold. Moreover, the “increase in the differentiation index” value in the experiment with murine myoblasts C2C12 came out at 1.3 fold.
With `O=C(O)CNC(=O)c1c(O)c2ccccc2n(Cc2ccccc2)c1=O` [IOX2], in experiment [1], the “decrease in fusion index” value is 67% and the “reduction in differentiation index” value was “no significant changes”. Besides, the “increase of the nuclear localization of MyoD” value in the experiment on MyoD is on record as 1.6 fold. Further, in the experiment on murine myoblasts C2C12, the fusion index entry is “no significant changes” and the “increase in the differentiation index” value turned out to be 1.5 fold.
